# Read-outs that look alike come from different tables or passages of the source.
# How the values were obtained:
# [1] = molecular target: T1, human TRPV3 (Homo sapiens, UniProt Q8NET8); assay: In vitro antagonism of recombinant human TRPV3 activation (FLIPR Tetra calcium assay); format: cell-based; settings: HEK293 cells stably expressing human TRPV3, agonist 2-APB at 80 μM
# T1 construct: expressed in transfected cells
# T1 sequence (Q8NET8 1-790): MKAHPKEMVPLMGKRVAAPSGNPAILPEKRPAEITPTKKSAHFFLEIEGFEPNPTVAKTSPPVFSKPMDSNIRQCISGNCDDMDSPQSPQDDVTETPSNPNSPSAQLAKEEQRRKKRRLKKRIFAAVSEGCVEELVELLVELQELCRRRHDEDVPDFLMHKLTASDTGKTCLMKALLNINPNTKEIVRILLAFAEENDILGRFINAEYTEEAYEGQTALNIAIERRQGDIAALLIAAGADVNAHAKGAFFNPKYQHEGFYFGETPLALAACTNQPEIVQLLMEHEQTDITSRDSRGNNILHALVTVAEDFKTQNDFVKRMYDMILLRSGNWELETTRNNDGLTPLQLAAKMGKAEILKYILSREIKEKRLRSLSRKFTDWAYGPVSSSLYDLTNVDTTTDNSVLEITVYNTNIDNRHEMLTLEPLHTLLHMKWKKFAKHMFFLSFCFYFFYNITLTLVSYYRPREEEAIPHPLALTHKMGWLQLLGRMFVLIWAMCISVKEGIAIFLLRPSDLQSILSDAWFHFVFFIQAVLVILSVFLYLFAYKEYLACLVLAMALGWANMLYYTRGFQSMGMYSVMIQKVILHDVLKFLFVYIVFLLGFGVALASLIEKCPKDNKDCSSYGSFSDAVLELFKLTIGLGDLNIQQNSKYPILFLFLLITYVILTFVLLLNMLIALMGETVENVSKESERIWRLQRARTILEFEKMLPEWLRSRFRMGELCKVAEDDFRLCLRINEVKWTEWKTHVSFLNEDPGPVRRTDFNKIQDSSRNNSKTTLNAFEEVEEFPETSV
# How it was run: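 Calcium flux read over a 10 min run: compound added at 10 s to Calcium-4-loaded human TRPV3-HEK293 cells, agonist 2-APB (80 μM, its EC80) after 3 min. IC50 derived from peak-minus-baseline signal as percentage of uninhibited 2-APB response, typically averaged over at least two runs.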
# [2] = In vitro human microsomal stability assay; format: in vitro ADME; settings: human, microsomes, 0.5 h, 0.5 μM, pH 7.4
# How it was run: (§1)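 Compound incubated at 37 °C with NADPH-supplemented liver microsomes, either human or from Sprague-Dawley rat, to assess metabolic stability.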
# [3] = In vitro rat microsomal stability assay; format: in vitro ADME, rat (Sprague-Dawley); settings: Sprague-Dawley, rat, microsomes, 0.5 h, 0.5 μM, pH 7.4
# How it was run: as §1
# [4] = actual measured value shown parenthetically, in most cases average of at least two runs, read-out: IC50
# [5] = reported range, read-out: IC50 (range class)
smiles,measurement,setting,value
"OC(c1ccccn1)C1(c2ccc(F)c(C(F)(F)F)c2)CC(F)(F)C1 (stereo not shown) [Example 139, {3,3-difluoro-1-[4-fluoro-3-(trifluoromethyl)phenyl]cyclobutyl}(pyridin-2-yl)methanol]",IC50,[1]; [4],0.75 µM
same,HUMAN MICROSOMAL STABILITY (% REMAINING AFTER 30 MINUTES),[2],41%
same,RAT MICROSOMAL STABILITY (% REMAINING AFTER 30 MINUTES),[3],26%
"OC(c1ccccn1)C1(c2ccccn2)CCC1 (stereo not shown) [Example 19, pyridin-2-yl(1-pyridin-2-ylcyclobutyl)methanol]",IC50,[1]; [4],> 20 µM
same,IC50,[1]; [5],> 20 µM
same,HUMAN MICROSOMAL STABILITY (% REMAINING AFTER 30 MINUTES),[2],>85%
same,RAT MICROSOMAL STABILITY (% REMAINING AFTER 30 MINUTES),[3],76%
"Cc1ccccc1C1(C(O)c2ccccn2)CCC1 (stereo not shown) [Example 7, [1-(2-methylphenyl)cyclobutyl](pyridin-2-yl)methanol]",IC50,[1]; [4],17.5 µM
same,HUMAN MICROSOMAL STABILITY (% REMAINING AFTER 30 MINUTES),[2],0.15%
same,RAT MICROSOMAL STABILITY (% REMAINING AFTER 30 MINUTES),[3],0.32%
"OC(C1CCCc2cccnc21)C1(c2ccc(C(F)(F)F)cc2)CCC1 (single isomer, unassigned) [Example 183, (anti)-5,6,7,8-tetrahydroquinolin-8-yl{1-[4-(trifluoromethyl)phenyl]-cyclobutyl}methanol]",IC50,[1]; [4],1.4 µM
same,HUMAN MICROSOMAL STABILITY (% REMAINING AFTER 30 MINUTES),[2],<0.01%
same,RAT MICROSOMAL STABILITY (% REMAINING AFTER 30 MINUTES),[3],<0.01%
"OC(C1CCc2cccnc21)C1(c2cccc(C(F)(F)F)c2)CCC1 (stereo not drawn) [Example 186, (syn)-6,7-dihydro-5H-cyclopenta[b]pyridin-7-yl{1-[3-(trifluoromethyl)-phenyl]cyclobutyl}methanol]",IC50,[1]; [4],> 20 µM
same,IC50,[1]; [5],> 20 µM
same,HUMAN MICROSOMAL STABILITY (% REMAINING AFTER 30 MINUTES),[2],0.18%
same,RAT MICROSOMAL STABILITY (% REMAINING AFTER 30 MINUTES),[3],<0.01%
"N[C@@H]1CCC[C@H]1[C@@H](O)C1(c2ccc(Cl)cc2)CCC1 [Example 224, (R)-[(1R,2R)-2-aminocyclopentyl][1-(4-chlorophenyl)cyclobutyl]methanol]",IC50,[1]; [4],4.84 µM
same,HUMAN MICROSOMAL STABILITY (% REMAINING AFTER 30 MINUTES),[2],>85%
same,RAT MICROSOMAL STABILITY (% REMAINING AFTER 30 MINUTES),[3],70%
"Cc1cccnc1[C@@H](O)C1(c2ccc(Cl)c(Cl)c2)CCC1 [Example 30, (S)-[1-(3,4-dichlorophenyl)cyclobutyl] (3-methylpyridin-2-yl)methanol]",IC50,[1]; [4],1.72 µM
same,HUMAN MICROSOMAL STABILITY (% REMAINING AFTER 30 MINUTES),[2],1.5%
same,RAT MICROSOMAL STABILITY (% REMAINING AFTER 30 MINUTES),[3],0.98%
"OC(C1CCc2cccnc21)C1(c2ccc(OC(F)(F)F)cc2)CCC1 (stereo not drawn) [Example 176, (syn)-6,7-dihydro-5H-cyclopenta[b]pyridin-7-yl{1-[4-(trifluoromethoxy)-phenyl]cyclobutyl}methanol]",IC50,[1]; [4],> 20 µM
same,IC50,[1]; [5],> 20 µM
same,HUMAN MICROSOMAL STABILITY (% REMAINING AFTER 30 MINUTES),[2],20%
same,RAT MICROSOMAL STABILITY (% REMAINING AFTER 30 MINUTES),[3],<0.01%
"OC(c1ccccn1)C1(c2ccc(OC(F)(F)F)cc2)CCNCC1 (stereo not shown) [Example 144, pyridin-2-yl{4-[4-(trifluoromethoxy)phenyl]piperidin-4-yl}methanol]",IC50,[1]; [4],> 20 µM
same,IC50,[1]; [5],> 20 µM
same,HUMAN MICROSOMAL STABILITY (% REMAINING AFTER 30 MINUTES),[2],>85%
same,RAT MICROSOMAL STABILITY (% REMAINING AFTER 30 MINUTES),[3],51%
"NC1CCCCC1C(O)C1(c2cccc(C(F)(F)F)c2)CCC1 (stereo not shown) [Example 212, (2-aminocyclohexyl) {1-[3-(trifluoromethyl)phenyl]cyclobutyl}methanol]",IC50,[1]; [4],2.87 µM
same,HUMAN MICROSOMAL STABILITY (% REMAINING AFTER 30 MINUTES),[2],>85%
same,RAT MICROSOMAL STABILITY (% REMAINING AFTER 30 MINUTES),[3],3.9%
